Earlier results on two molecules are cited in patent publication US20200038413A1, “METHODS OF TREATING PARKINSON'S DISEASE USING AMINOSTEROL COMPOSITIONS” (Enterin, Inc., priority 2018, published 2020).

Counter-ions that a name gives are not always drawn.

For data set [1] the following is noted: single and repeat intravenous administration, alone or in combination; cited from earlier work.
A further data set concerns PD population. The following applies: short term placebo controlled trial, PD constipation; cited from earlier work.

As for `CC(C)[C@@H](CC[C@@H](C)[C@H]1CC[C@H]2[C@@H]3[C@H](O)C[C@H]4C[C@@H](NCCCNCCCCN)CC[C@]4(C)[C@H]3CC[C@]12C)OS(=O)(=O)O` [Squalamine dilactate salt], in data set [1], the well tolerated dose result is recorded as “at least 300 mg/m^2”.

In the case of `CCCCC(F)(F)[C@@]1(O)CC[C@H]2[C@@H](CC(=O)[C@@H]2CCCCCCC(=O)O)O1` [Lubiprostone], in the data set with PD population, the “proportion of those treated in whom effective” value is given as “about 50%”.
